Assay results as given in patent US11253501B2, “Secnidazole formulations and use in treating bacterial vaginosis” (LUPIN INC., priority 2015, dated 2022).

Assays:
[1] = Plasma pharmacokinetics after a single oral dose in fasted healthy female subjects; assay type: in vivo, human; conditions: 2 gram secnidazole microgranule formulation (70% drug in core)
[2] = Urine pharmacokinetics after a single oral dose in fasted healthy female subjects; assay type: in vivo, human; conditions: 2 gram secnidazole microgranule formulation (70% drug in core)

Cc1ncc([N+](=O)[O-])n1CC(C)O (centres unmarked) [Secnidazole, 1-(2-hydroxypropyl)-2-methyl-5-nitromidazole]
λz, Mean (SD) [1]: 0.0422 (0.007544) 1/h
λz, Median [1]: 0.04047 h⁻¹
% FE, Geometric Mean (SD) [2]: 14.991 (3.0081) %
% FE, Mean (SD) [2]: 15.300 (3.5549) %
% FE, Median [2]: 14.943%
Ae0-168, Geometric Mean (SD) [2]: 0.300 (0.0602) g
Ae0-168, Mean (SD) [2]: 0.306 (0.0711) g
Ae0-168, Median [2]: 0.299 g
